Laboratory results taken from US20170143748A1, “ANTI-TUMOR PHARMACEUTICAL APPLICATION OF PENTACYCLIC TRITERPENE SAPONIN COMPOUNDS OF SZECHUAN MELANDIUM ROOT” (priority 2014, published 2017).
Several values for one entry are separate records, joined by “and”; a condition that tells them apart may be missing. Identical values can stand only once.

What was measured:
[1] = system: HepG2; test: MTT inhibition of tumor cells in vitro (Example 3); assay type: cell-based, Human; settings: 40 μg/mL, 48 hours
[2] = system: A875; test: MTT inhibition of tumor cells in vitro (Example 3); assay type: cell-based, Human; settings: 40 μg/mL, 48 hours
Experimental: (§1) Human resources tumor cell line […], […], HT29, MCF-7 and A875 were provided by Cancer Hospital, Chinese Academy of Medical Sciences.
(§2) Cells were passaged every 2 or 3 days, and all the experiments were carried out on exponentially growing cells.
(§3) All cells were cultured in a humidified atmosphere (5% CO2 and […]), and passaged every 2 or 3 days. Cells were harvested on exponentially growing phase, and cell suspension was prepared with 2×10^4 cells/mL, added with 100 μL per well of 96-well plates, and cultured for 24 h in incubator. 100 μL medium without cells was added per well as blank group.
(§4) Compound (1), (2), (3), (4), (7) or (8) was dissolved in DMSO respectively, and diluted with 1640 medium at a final concentration of 400 μg/mL, so as to that of the Cisplatin. Cells were divided into 9 groups, they were blank group, model group, Compound (1), (2), (3), (4), (7) and (8) groups, and Cisplatin group as the positive one, 6 wells per group.
(§5) Before drug administration, supernatant of each well was removed and fresh 1640 medium was added, 180 μL per well. Compounds and Cisplatin were added with 20 μL per well respectively at a final concentration of 40 μg/mL. Wells of blank and model groups were added with 0.5% DMSO, 20 μL per well. 48 hours later, 20 μL MTT was added per well and continued to culture for 4 hours, then the supernatant was replaced carefully and DMSO was added with 150 μL per well to end the experiment. The 96-well plates were shaken for 10 mins and read the absorbance at 490 nm. The Inhibition rate was calculated.
(§6) Inhibition rate=[(ODmodel−ODblank)−(ODdrugs−ODblank)]/(ODmodel−ODblank)×100%
(§7) The MTT experiment was repeated three times.

[3] = system: MCF-7; test: MTT inhibition of tumor cells in vitro (Example 3); assay type: cell-based, Human; settings: 40 μg/mL, 48 hours
Experimental: as §1, §2, §3, §4, §5, §6, §7

[4] = system: HT29; test: MTT inhibition of tumor cells in vitro (Example 3); assay type: cell-based, Human; settings: 40 μg/mL, 48 hours
Experimental: as §1, §2, §3, §4, §5, §6, §7

[5] = system: BGC823; test: MTT inhibition of tumor cells in vitro (Example 3); assay type: cell-based, Human; settings: 40 μg/mL, 48 hours
Experimental: as §1, §2, §3, §4, §5, §6, §7

[6] = system: HepG2 human heptoma; test: Anti-HepG2 human heptoma in BALB/c (nu/nu) nude mice; settings: for body weight of HepG2-bearing nude mice / tumor volume of HepG2-bearing nude mice: Sc; for Inhibition rate: from average tumor mass vs model; for Tumor index: tumor mass/body weight
Experimental: 70 male BALB/c (nu/nu) nude mice (18-20 g, License NO. SCXK (BJ) 2009-0017, National Institutes for Food and Drug Control.) were adaptively bred for one week, and then used in the following experiment.
Human resources hepatoma cell line HepG2 was cultured in RPMI-1640 medium containing 100 U/mL Penicillin and 100 μg/mL Streptomycin with 10% fetal bovine serum and maintained at 37° C. in a humidified atmosphere (5% CO2 and […]).
70 BALB/c (nu/nu) nude mice were adaptively bred for 1 week, HepG2 cells were inoculated subcutaneously into the back of nude mice, 1×10^7 cells per mouse. […] 3 days after inoculation, mice of every therapeutic group were all given the relevant compounds or drugs for 3 weeks, and others were given isodose physiological saline.
The body weight and the size of tumor were measured and recorded weekly. The tumor volume was calculated with the formula below:
tumor volume V=π/6×a×b^2 (a, b means the transverse and longitudinal length of tumor)
At the end of administration, mice were fastened for 8 hours, weighed the fasting body weight, dropped off eyeball to collect blood, centrifuged and collected serum for next experiment. The tumors were departed and weighed. Tumor Index and inhibition rate were calculated as below:
Tumor Index=Tumor mass (mg)/body weight of animal (g)
Inhibition rate=(Average tumor massControl group−Average tumor massadministration group)/Average tumor massControl group×100%
Mice in the model group were injected with sterile water (10 ml/kg BW), Sc. All the animals were treated at 9 am for 3 weeks.
Determination of body weights: Body weights of animals were weighed and recorded once a week.
Tumor measurement: The transverse and longitudinal lengths of tumor were measured with vernier caliper weekly.
End of the experiment: After mice being administrated for 3 weeks (21 days), the experiment was terminated.

[7] = system: HT29 human colon cancer; test: Anti-HT29 human colon cancer in BALB/c (nu/nu) nude mice; assay type: in vivo; set-up: body weight of HT29-bearing nude mice / tumor volume of HT29-bearing nude mice / Tumor mass: unit not given here; settings: for tumor volume of HT29-bearing nude mice: Sc
Experimental: Human resources Colon cancer cell line HT29 was cultured in the same condition as the experiment 4. […] Mice were randomly assigned into 7 groups: […] The body weight and the tumor volume were measured and recorded weekly. The tumor volume was calculated according to the formula below. […] The tumors were departed and weighed.

[8] = system: BGC823 human gastric adenocarcinoma; test: Anti-BGC823 human gastric adenocarcinoma in BALB/c (nu/nu) nude mice; assay type: in vivo; set-up: tumor volume of BGC823-bearing nude mice / Tumor mass: unit not given here; settings: for body weight of BGC823-bearing nude mice / tumor volume of BGC823-bearing nude mice: Sc; for body weight of BGC823-bearing nude mice: in g (unit assumed); for Inhibition rate: from average tumor mass vs model; for Tumor index: tumor mass/body weight
Experimental: Human resources gastric adenocarcinoma cell line BGC823 was cultured in the same condition as the experiment 4.
The body weight and the tumor volume were measured and recorded weekly. The tumor volume was calculated according to the formula below.
Tumors were departed and weighed. Tumor Index and inhibition rate were calculated as below: […]

[9] = 1 W, mg/kg BW: total saponins 1.5, Compound 1, combination 1 & 39, Cytoxan 40
[10] = 2 W, mg/kg BW: total saponins 1.5, Compound 1, combination 1 & 39, Cytoxan 40
[11] = 3 W, mg/kg BW: total saponins 1.5, Compound 1, combination 1 & 39, Cytoxan 40
[12] = HepG2-bearing nude mice, after 3 weeks
[13] = 0 W, mg/kg BW: total saponins 1.5, Compound 1, combination 1 & 19, 5-FU 20
[14] = 1 W, mg/kg BW: total saponins 1.5, Compound 1, combination 1 & 19, 5-FU 20
[15] = 2 W, mg/kg BW: total saponins 1.5, Compound 1, combination 1 & 19, 5-FU 20
[16] = 3 W, mg/kg BW: total saponins 1.5, Compound 1, combination 1 & 19, 5-FU 20
[17] = BGC823-bearing nude mice, after 3 weeks

Compound | Inhibition rate, A875 [2] [%] | Inhibition rate, MCF-7 [3] [%] | tumor volume of HepG2-bearing nude mice [6, 9] | tumor volume of HepG2-bearing nude mice [6, 10] | tumor volume of HepG2-bearing nude mice [6, 11] | Inhibition rate [6, 12] [%] | Tumor index [6, 12] | body weight of BGC823-bearing nude mice [8, 13] | tumor volume of BGC823-bearing nude mice [8, 14] | body weight of BGC823-bearing nude mice [8, 14] | tumor volume of BGC823-bearing nude mice [8, 15] | body weight of BGC823-bearing nude mice [8, 15] | tumor volume of BGC823-bearing nude mice [8, 16] | body weight of BGC823-bearing nude mice [8, 16] | Inhibition rate [8, 17] | Tumor index [8, 17] | further results
sinocrassuloside VIII [Compound (3)] | 68.35 ± 5.37 | 90.12 ± 7.43 |  |  |  |  |  |  |  |  |  |  |  |  |  |  | Inhibition rate, HepG2 [1]: 74.35 ± 1.51%; Inhibition rate, HT29 [4]: 56.62 ± 4.24%; Inhibition rate, BGC823 [5]: 92.09 ± 1.13%
O=P1(N(CCCl)CCCl)NCCCO1 (centres unmarked) [Cytoxan, reference compound] |  |  | 988.47 ± 705.60 | 1220.93 ± 881.80 | 1593.79 ± 955.17 | 70.46 | 0.06 ± 0.02 |  |  |  |  |  |  |  |  |  | body weight of HepG2-bearing nude mice ([6]; 0 W, mg/kg BW: total saponins 1.5, Compound 1, combination 1 & 39, Cytoxan 40): 19.20 ± 0.63; body weight of HepG2-bearing nude mice [6, 9]: 18.50 ± 1.08; body weight of HepG2-bearing nude mice [6, 10]: 16.00 ± 1.41; body weight of HepG2-bearing nude mice [6, 11]: 14.70 ± 1.34
sinocrassuloside VI [Compound (1)] | 88.02 ± 12.57 | 83.12 ± 2.33 | 922.51 ± 624.95 | 1060.32 ± 570.38 | 1033.33 ± 656.54 | 80.05 | 0.03 ± 0.01 | 20.30 ± 1.06 | 850.16 ± 539.70 | 21.50 ± 1.18 | 997.88 ± 499.61 | 22.70 ± 1.16 | 845.04 ± 239.21 | 23.70 ± 1.06 | 64.54% and 61.54% | 0.04 ± 0.02 | Tumor mass ([6]; HepG2-bearing nude mice, after 3 weeks, mg/kg BW: total saponins 1.5, Compound 1, combination 1 & 39, Cytoxan 40): 0.59 ± 0.29; tumor volume of HT29-bearing nude mice ([7]; 1 W, mg/kg BW: total saponins 1.5, Compound 1, combination 1 & 19, PTX 20): 1094.99 ± 678.00; tumor volume of HT29-bearing nude mice ([7]; 2 W, mg/kg BW: total saponins 1.5, Compound 1, combination 1 & 19, PTX 20): 907.89 ± 738.11; tumor volume of HT29-bearing nude mice ([7]; 3 W, mg/kg BW: total saponins 1.5, Compound 1, combination 1 & 19, PTX 20): 814.93 ± 450.73; Inhibition rate ([7]; HT29-bearing nude mice, after 3 weeks, from average tumor mass vs model): 50.44%; Tumor mass ([7]; HT29-bearing nude mice, after 3 weeks, mg/kg BW: total saponins 1.5, Compound 1, combination 1 & 19, PTX 20): 1.15 ± 0.52; Tumor index ([7]; HT29-bearing nude mice, after 3 weeks, tumor mass/body weight): 0.05 ± 0.02; Tumor mass ([8]; BGC823-bearing nude mice, after 3 weeks, mg/kg BW: total saponins 1.5, Compound 1, combination 1 & 19, 5-FU 20): 1.05 ± 0.36
O=c1[nH]cc(F)c(=O)[nH]1 [Compound 5-FU, 5-FU, reference compound] |  |  |  |  |  |  |  | 20.20 ± 1.23 | 931.38 ± 623.32 | 19.50 ± 1.51 | 1262.33 ± 764.46 | 18.20 ± 1.81 | 2212.36 ± 1196.96 | 16.70 ± 2.20 | 54.85% | 0.08 ± 0.04 | 
